Laboratory results reported in ChEMBL document CHEMBL3352628, “Stereochemical modification of geminal dialkyl substituents on pantothenamides alters antimicrobial activity” (Bioorg Med Chem Lett, 2014).
In brackets after ≈: the same amount, converted by molar mass. Activity calls are given as the source filed them. The calls are words filed in the database; no cut-off is given here.

Tests used:
Staphylococcus aureus [1] = assay: Antimicrobial activity against oxacillin-susceptible Staphylococcus aureus ATCC 29213 at 500 uM after 18 hrs by microdilution broth method; type: functional, organism-based
Staphylococcus aureus [2] = assay: Antimicrobial activity against oxacillin-resistant Staphylococcus aureus 43300 at 500 uM after 18 hrs by microdilution broth method; type: functional, organism-based
Plasmodium falciparum [3] = assay: Antimicrobial activity against chloroquine-sensitive Plasmodium falciparum 3D7 ring stage parasite assessed as reduction in parasite proliferation after 96 hrs in presence of 1 uM pantothenate by SYBR Safe DNA gel staining based assay; type: functional, organism-based; conditions: 3D7, 96 h
Plasmodium falciparum [4] = assay: Antimicrobial activity against chloroquine-sensitive Plasmodium falciparum 3D7 ring stage parasite assessed as reduction in parasite proliferation after 96 hrs in presence of 50 uM pantothenate by SYBR Safe DNA gel staining based assay; type: functional, organism-based; conditions: 3D7, 96 h
HFF = assay: Cytotoxicity against HFF cells at 1 to 100 uM after 48 hrs by SYBR Safe DNA gel staining based assay; type: cell-based; conditions: human
Staphylococcus aureus [5] = assay: Antimicrobial activity against oxacillin-susceptible Staphylococcus aureus ATCC 29213 after 18 hrs by microdilution broth method; type: functional; conditions: ATCC 29213, 18 h
Staphylococcus aureus [6] = assay: Antimicrobial activity against oxacillin-resistant Staphylococcus aureus 43300 after 18 hrs by microdilution broth method; type: functional; conditions: Staphylococcus aureus, 43300, 18 h

How did the Activity (Staphylococcus aureus [1]) turn out when `C=CC[C@@](C)(CO)[C@@H](O)C(=O)NCCC(=O)NCCCCC` was run?
The Activity was “inactive”.

And the Activity (Staphylococcus aureus [2])?
The Activity was “inactive”.

What about the IC50 (Plasmodium falciparum [3]) of the same compound?
The IC50 was 2.4 µM.

What about the IC50 (Plasmodium falciparum [4]) of the same compound?
The IC50 was 13 µM.

What about the Activity (HFF) of the same compound?
The Activity was “Non-toxic”.

What about the MIC (Staphylococcus aureus [5]) of the same compound?
The MIC was 3.2 µM (≈ 1.01 µg/mL).

And the MIC (Staphylococcus aureus [6])?
Its MIC is 3.2 µM (≈ 1.01 µg/mL).

What does the source list for `C=CC[C@](C)(CO)[C@@H](O)C(=O)NCCC(=O)NCCCCC`?
IC50 (Plasmodium falciparum [3]): 31 µM; Activity (HFF): Non-toxic
